Reference: patent publication US20250188457A1, “COMPOSITIONS AND METHODS FOR THE TREATMENT OF GLIOBLASTOMA BY INHIBITION OF THE TFPI2-CD51-STAT6 SIGNALING AXIS” (Northwestern University, priority 2023, published 2025)

How the values were obtained:
005 GSC and CT2A tumors = assay: Survival of C57BL/6 mice implanted with 005 GSCs or CT2A cells; assay type: in vivo, mouse; details: for survival of mice bearing 005 GSC and CT2A tumors, combination with anti-PD1 therapy: anti-PD1 10 mg/kg i.p. on days 11, 14 and 17, MK-0429 30 mg/kg or AS1517499 10 mg/kg i.p. every other day
Description: (§1) Female C57BL/6 (#0000664), nude mice (#007850), and B6.12952(C)-Stat6tm1Gru/J mice (STAT6-KO; #005977) at 6 weeks of age were purchased from the Jackson Laboratory. Mice were grouped by 5 animals and maintained in a pathogen-free IVC System (San Diego, CA) for a week before the experiment. All animal experiments were performed with the approval of the Institutional Animal Care and Use Committee (IACUC) at Northwestern University. The intracranial xenograft tumor models were established (Refs. 11, 61; incorporated by reference in their entireties). Ketamine (100 mg/kg) and xylazine (20 mg/kg) were used for anesthetizing mice through intraperitoneal injection. Then a dental drill was used to open a small hole in the skull 1.2 mm anterior and 3.0 mm lateral to the bregma. A total volume of […] cells in FBS-free DMEM was injected into the right caudate nucleus 3 mm below the surface of the brain using a […] Hamilton syringe with an unbeveled 30-gauge needle. Total three doses of 20 mg/kg meloxicam were administrated before and after surgery through subcutaneous injection. After cancer cell implantation, mice were monitored for recording survival. Mice with neurological deficits or moribund appearance were sacrificed. Following the transcardiac perfusion with PBS and 4% paraformaldehyde (PFA), brains were removed and fixed in 4% PFA, and were processed for paraffin-embedded blocks or cryosectioning.

GSC23 and GSC262 cells [1] = assay: Tumorsphere formation assay (GSC self-renewal); assay type: cell-based, human; details: GSC23 and GSC262 with TFPI2 OE plasmid; JNK-IN-8 10 nM, WP1066 20 nM
Description: The tumorsphere formation assay was performed (Ref. 79; incorporated by reference in its entirety). GSCs were treated with different concentrations of recombinant TFPI2 protein for 24 hrs with or without inhibition of JNK or STAT3, or modified with TFPI21 KO, knockdown or overexpression. After treatment or genetic modifications, cells were centrifuged at 1500 rpm for 5 min and resuspended in the plain cell culture media without additional supplements. Cells were then seeded into a 96-wells plate at 100 cells/well. The number of tumorspheres in each well was imaged and quantified after 10 days.

GSC23 and GSC262 cells [2] = assay: CFSE proliferation analysis of GSCs; assay type: cell-based, human; details: GSC23 and GSC262 with TFPI2 OE plasmid; JNK-IN-8 10 nM, WP1066 20 nM
Description: Cell proliferation was assessed using the CellTrace CFSE Cell Proliferation Kit (Invitrogen, #C34554). 10^6 cells were harvested and incubated with CFSE working solution (1:1000) for 20 min at 37° C. The staining was stopped by adding complete cell culture media. After washing, cells were continuously cultured for 5 days in the dark. At the end of the incubation, cells were collected by spinning down at 1500 rpm for 5 min. The cell pellet was resuspended in cell staining buffer for flow cytometry analysis. The percentage of CFSE positive peaks over the undivided peak (generation 0) was analyzed using the ImageJ software.

GSC23 and GSC262 cells [3] = assay: Apoptosis analysis of GSCs (Apotracker/PI flow cytometry); assay type: cell-based, human; details: GSC23 and GSC262 with TFPI2 OE plasmid; JNK-IN-8 10 nM, WP1066 20 nM
Description: Cell apoptosis was evaluated using Apotracker Green (BioLegend, #427402) (Ref. 78; incorporated by reference in its entirety). 10^5 cells were collected and stained with Apotracker (1:10 dilution) in […] cell staining buffer. […] propidium iodide (PI) solution (BioLegend, #421301) was added for labeling late apoptotic and necrotic cells. After washing with PBS twice, FITC and PI signals were analyzed in BD FACSymphony flow cytometer.

STAT3 = assay: Immunoblot for P-STAT3 and STAT3 in GSCs; assay type: cell-based, human; details: GSC23 and GSC262, TFPI2 OE or TFPI2 recombinant protein 20 ng/ml; JNK-IN-8 10 nM
Description: (§2) The protein expression in cells was determined by western blotting analysis (Ref. 61; incorporated by reference in its entirety). Cells were homogenized in RIPA lysis buffer containing phosphatase/protease cocktail inhibitors (Cell Signaling Technology, #5870). The protein concentration was determined by BCA Protein Assay Kit (Thermo Fisher Scientific, #P123225). Protein solution was mixed with the Leammli sample buffer and heated at 95° C. before loading to SurePAGE gels (GenScript, #M00653). The gels were run at a constant voltage of 80 V and then transferred to 0.2 μm nitrocellulose membrane (Bio-Rad, #1620112) using the Trans-Blot Turbo system (Bio-Rad) with a preprogrammed standard protocol for 30 min. Nitrocellulose membrane was incubated with 5% dry milk to block any unspecific staining. […]

GSC23 tumor = assay: Survival of nude mice implanted with GSC23 expressing TFPI2 overexpression plasmid; assay type: in vivo, mouse; details: 30 mg/kg body weight, i.p., every day, on day 7
Description: as §1, with “Following the transcardiac perfusion with PBS and 4% paraformaldehyde (PFA), brains were removed and fixed in 4% PFA, and were processed for paraffin-embedded blocks or cryosectioning.” left out

JNK = assay: Immunoblot for P-JNK and JNK in GSCs; assay type: cell-based, human; details: GSC23 and GSC262, TFPI2 OE or TFPI2 recombinant protein 20 ng/ml; WP1066 20 nM
Description: as §2

Row | SMILES | survival of mice implanted with 005 GSCs and CT2A cells, inhibitor alone (005 GSC and CT2A tumors; MK-0429 30 mg/kg or AS1517499 10 mg/kg, i.p., every other day, on day 7, Cilengitide dose not given) | survival of mice bearing 005 GSC and CT2A tumors, combination with anti-PD1 therapy (005 GSC and CT2A tumors) | self-renewal effect of increasing cellular TFPI2 in GSCs (tumorspheres) (GSC23 and GSC262 cells [1]) | proliferation effect of increasing cellular TFPI2 in GSCs (GSC23 and GSC262 cells [2]) | apoptotic effect of increasing cellular TFPI2 in GSCs (GSC23 and GSC262 cells [3]) | TFPI2-induced STAT3 activation (P-STAT3) (STAT3) | shortening of survival by TFPI2 overexpression in GSC23 tumor-bearing mice (GSC23 tumor) | TFPI2-induced JNK activation (P-JNK) (JNK)
1 | CC(C)[C@H]1C(=O)N[C@@H](CCCN=C(N)N)C(=O)NCC(=O)N[C@@H](CC(=O)O)C(=O)N[C@H](Cc2ccccc2)C(=O)N1C [Cilengitide] | significantly extended the survival | enhanced the efficacy |  |  |  |  |  | 
2 | Cc1cc(NC(=O)c2cccc(NC(=O)/C=C/CN(C)C)c2)ccc1Nc1nccc(-c2cccnc2)n1 [JNK-IN-8] |  |  | negated | negated | negated | blocked | abolished | 
3 | COc1ccc([C@H](CC(=O)O)N2CCN(CCCc3ccc4c(n3)NCCC4)C2=O)cn1 [MK-0429] |  | synergized |  |  |  |  |  | 
4 | C[C@H](NC(=O)/C(C#N)=C/c1cccc(Br)n1)c1ccccc1 [WP1066] |  |  | negated | negated | negated |  | abolished | no effect
